Test system: mouse established cell line L929
Test: Cytotoxicity test (neutral red uptake, NR50)
Type: cell-based
Settings: L929 cells, 2 days incubation with sample; concentration at which 50% of the cells are killed
Procedure: The cytotoxicity test was made according to methods described in J. Biomed. Mater. Res. 29, 829-835 (1995) and by use of a mouse established cell line L929. In detail, cell dispersion was prepared to be 10,000 cells/mL; and 0.1 mL of the cell dispersion was sowed in each well of the 96-well culture plate and incubated at 37° C. for 3 days. Subsequently, each of the aqueous solutions mentioned above was diluted to one of various concentrations, and was charged into respective well by 0.1 mL. Then, incubation was further continued for 2 days. Subsequently, 0.1 mL of neural red culture-medium solution as prepared as 150 microgram/mL was added into the each well; and the incubation was made at 37° C. for 3 hours. After the incubation, culture medium was removed; and the cells were fixed by 1 wt % glutaraldehyde aqueous solution and thereafter air-dried. Subsequently, 0.1 mL of water/ethanol solution (equal-volume mixture) having 1 wt % of acetic acid was added; and then neural red molecules that had been taken into the cells were extracted. Light absorbency at 541 nm was measured and NR50 values were obtained from result of this measurement. The NR50 value indicates a concentration at which 50% of the cells are killed. The smaller the NR50 value becomes, the larger becomes the toxicity.

C=O [Formaldehyde]
NR50 value: 1.7 ± 02 µg/mL

O=CCCCC=O [Glutaraldehyde]
NR50 value: 3.9 ± 0.7 µg/mL

From US7834065B2, “Medical-use two part reactive adhesive and medical-use resin having self-degradation property” (BMG Incorporated, priority 2006, dated 2010)
